The subject of one data set is HeLa. The data set is described as follows: Antiproliferative activity against human HeLa cells assessed as inhibition of cell growth incubated for 72 hrs by MTT assay. In kind it is functional, cell-based.
Another data set relates to SK-OV-3. Nature of the data set: Antiproliferative activity against human SK-OV-3 cells assessed as inhibition of cell growth incubated for 72 hrs by MTT assay. Format: functional, cell-based. The conditions noted are these: SK-OV-3, 72 h.
The next data set has as its system T47D. The data set is described as follows: Antiproliferative activity against human T47D cells assessed as inhibition of cell growth incubated for 72 hrs by MTT assay. In kind it is functional, cell-based.
For a further data set, the system named is MCF7. The data set is described as follows: Antiproliferative activity against human MCF7 cells assessed as inhibition of cell growth incubated for 72 hrs by MTT assay. In kind it is functional, cell-based. As to conditions: MCF7, 72 h.
The next data set deals with HepG2. Nature of the data set: Antiproliferative activity against human HepG2 cells assessed as inhibition of cell growth incubated for 72 hrs by MTT assay. Format: functional, cell-based. The conditions noted are these: HepG2, 72 h.
A short description of data set [1]: Cytotoxicity against HEK293T cells assessed as inhibition of cell growth incubated for 72 hrs by MTT assay. In kind it is toxicity, cell-based, HEK-293T. As to conditions: human.
A short description of data set [2]: Selectivity index, ratio of IC50 for cytotoxicity against HEK293T cells to IC50 for antiproliferative activity against human HepG2 cells. The conditions noted are these: HEK293T cells versus HepG2 cells, read-out: Ratio IC50. In kind it is toxicity, cell-based.
Data set [3] is described as follows: Potency index, ratio of test compound IC50 to 2-methoxyestradiol IC50 for cytotoxicity against human HEK293T cells assessed as inhibition of cell growth incubated for 72 hrs by MTT assay. Format: toxicity, cell-based, HEK-293T. The conditions noted are these: read-out: Ratio IC50.

This is an account of results in ChEMBL document CHEMBL5150066, “Synthesis of estrone selenocyanate Compounds, anti-tumor activity evaluation and Structure-activity relationship analysis” (Bioorg Med Chem, 2022).

Consider `COc1ccc2c(c1)CC[C@@H]1[C@@H]2CC[C@]2(C)C(OC(=O)C[Se]C#N)CC[C@@H]12` (stereo partly specified), for which the 50% inhibitory concentration (IC50) with HeLa was 56.8 µM; in the data set with SK-OV-3, 52.4 µM; in the data set on T47D, 41.5 µM; in the data set with MCF7, 88.3 µM; with HepG2, 61.1 µM. Further, the IC50 at 72 h in data set [1] is 45.2 µM.
Consider `C[C@]12CC[C@@H]3c4cc(NC(=O)c5ccc(C[Se]C#N)cc5)c(O)cc4CC[C@H]3[C@@H]1CCC2=O`, for which the IC50 with HeLa turned out to be 26.8 µM; in the data set on SK-OV-3, 49.5 µM; with T47D it was 37.4 µM; with MCF7 it was 39.2 µM; in the data set with HepG2, 68.9 µM. The IC50 at 72 h in data set [1] was found to be 27.2 µM.
In the case of `C[C@]12CC[C@@H]3c4cc(NC(=O)C[Se]C#N)c(O)cc4CC[C@H]3[C@@H]1CCC2=O`, the IC50 in the data set on HeLa turned out to be 9.4 µM; in the data set on SK-OV-3, 2.6 µM; in the data set on T47D it was 22.8 µM; in the data set with MCF7, 16.6 µM; in the data set on HepG2, 1 µM. For the same compound, the IC50 at 72 h in data set [1] amounted to 15.4 µM. In addition, in data set [2], the selectivity ratio was determined as 15. The selectivity ratio at 72 h in data set [3] turned out to be 3.
In the case of `C[C@]12CC[C@@H]3c4cc(N)c(O)cc4CC[C@H]3[C@@H]1CCC2=O`, the IC50 in the data set on HeLa was > 70 µM; with SK-OV-3 it was > 70 µM; in the data set on T47D it was 50.5 µM; with MCF7, > 70 µM; in the data set on HepG2, 56.3 µM. Also, the IC50 at 72 h in data set [1] came to 36.4 µM.
Consider `C[C@]12CC[C@@H]3c4ccc(OCC[Se]C#N)cc4CC[C@H]3[C@@H]1CCC2=O`, for which the IC50 in the data set with HeLa was 20.2 µM; in the data set on SK-OV-3 it was 60.3 µM; with MCF7, 52.3 µM; in the data set with HepG2, > 100 µM. Also, in data set [1], the IC50 at 72 h was 51.1 µM.
`C[C@]12CC[C@@H]3c4ccc(O)cc4CC[C@H]3[C@@H]1CCC2NC(=O)c1ccc(C[Se]C#N)cc1` (stereo partly specified): the IC50 in the data set on HeLa was 13.7 µM; in the data set with SK-OV-3, 27.7 µM; in the data set on T47D, 25.1 µM; in the data set with MCF7 it was 17.2 µM; in the data set on HepG2 it was 16.1 µM. Moreover, the IC50 at 72 h in data set [1] is 13.4 µM.
`C[C@]12CC[C@@H]3c4ccc(O)cc4CC[C@H]3[C@@H]1CCC2NC(=O)C[Se]C#N` (stereo partly specified): the IC50 in the data set on HeLa came to 70.4 µM; in the data set with SK-OV-3, 30.5 µM; in the data set with T47D, 73.4 µM; with MCF7, 73.4 µM; in the data set on HepG2, 70.4 µM. Besides, the IC50 at 72 h in data set [1] was 25.4 µM.
As for `COc1ccc2c(c1)CC[C@@H]1[C@@H]2CC[C@]2(C)C(NC(=O)c3ccc(C[Se]C#N)cc3)CC[C@@H]12` (stereo partly specified), the IC50 in the data set on HeLa is 9.6 µM; in the data set on SK-OV-3, 22.4 µM; with T47D, 40.8 µM; in the data set on MCF7 it was 15.8 µM; in the data set with HepG2, 13.8 µM. Also, the IC50 at 72 h in data set [1] came out at 24.6 µM.
As to `C[C@]12CC[C@@H]3c4ccc(OCCCCCCCC[Se]C#N)cc4CC[C@H]3[C@@H]1CCC2=O`, the IC50 in the data set on HeLa was determined as 5.6 µM; in the data set with SK-OV-3, 20.1 µM; with T47D, 59.2 µM; in the data set on MCF7, 8 µM; in the data set on HepG2, 42.5 µM. For the same compound, in data set [1], the IC50 at 72 h came out at 8.9 µM.
Take `C[C@]12CC[C@@H]3c4cc(NC(=O)CCCC[Se]C#N)c(O)cc4CC[C@H]3[C@@H]1CCC2=O`: the IC50 came out at 13.7 µM with HeLa; 15.6 µM in the data set on SK-OV-3; 21.8 µM in the data set with T47D; 17.3 µM in the data set with MCF7; 11 µM with HepG2. Also, the IC50 at 72 h in data set [1] was determined as 18.2 µM.
With `COc1ccc2c(c1)CC[C@@H]1[C@@H]2CC[C@]2(C)/C(=N/OC(=O)C[Se]C#N)CC[C@@H]12`, the IC50 in the data set with HeLa was 26.3 µM; with SK-OV-3 it was 53.4 µM; in the data set with T47D, 24.2 µM; in the data set with MCF7 it was 18.8 µM; with HepG2, 62.5 µM. Also, the IC50 at 72 h in data set [1] worked out at 25.2 µM.
With `C[C@]12CC[C@@H]3c4cc(NC(=O)CCCCCCCCC[Se]C#N)c(O)cc4CC[C@H]3[C@@H]1CCC2=O`, the IC50 is 13.7 µM in the data set on HeLa; 14.4 µM with SK-OV-3; 24.6 µM with T47D; 9.3 µM in the data set with MCF7; 31 µM in the data set with HepG2. Also, the IC50 at 72 h in data set [1] turned out to be 17.2 µM.
For the compound `C[C@]12CC[C@@H]3c4ccc(OCCCCCCCCCCCC[Se]C#N)cc4CC[C@H]3[C@@H]1CCC2=O`, the IC50 in the data set with HeLa is 18.2 µM; in the data set with SK-OV-3, 46.6 µM; in the data set on T47D, 19.7 µM; in the data set with MCF7, 27.5 µM; in the data set on HepG2, > 100 µM. Also, the IC50 at 72 h in data set [1] was 16.5 µM.
On to `COc1ccc2c(c1)CC[C@@H]1[C@@H]2CC[C@]2(C)/C(=N/OC(=O)c3ccc(C[Se]C#N)cc3)CC[C@@H]12`, for which the IC50 with HeLa came out at 21 µM; in the data set with SK-OV-3 it was 69 µM; in the data set on T47D, 24.2 µM; with MCF7 it was 3.9 µM; in the data set with HepG2 it was 80.4 µM. In data set [1], the IC50 at 72 h amounted to 23.2 µM.
Regarding `COc1ccc2c(c1)CC[C@@H]1[C@@H]2CC[C@]2(C)C(OC(=O)c3ccc(C[Se]C#N)cc3)CC[C@@H]12` (stereo partly specified), the IC50 is 47.5 µM in the data set with HeLa; 56.3 µM with SK-OV-3; > 100 µM with T47D; 55.5 µM in the data set with MCF7; 35.9 µM in the data set with HepG2. Moreover, the IC50 at 72 h in data set [1] was found to be 29.7 µM.
On to `COc1ccc2c(c1)CC[C@@H]1[C@@H]2CC[C@]2(C)C(NC(=O)C[Se]C#N)CC[C@@H]12` (stereo partly specified), for which the IC50 stood at 16.2 µM in the data set with HeLa; 30.6 µM with SK-OV-3; 75.9 µM in the data set with T47D; 56.1 µM in the data set with MCF7; 10.5 µM in the data set with HepG2. Also, the IC50 at 72 h in data set [1] turned out to be 15 µM.
For the compound `C[C@]12CC[C@@H]3c4ccc(OCCC[Se]C#N)cc4CC[C@H]3[C@@H]1CCC2=O`, the half-inhibitory concentration (IC50) in the data set with HeLa was 18.2 µM; in the data set on SK-OV-3, 54.6 µM; with T47D, > 100 µM; in the data set on MCF7 it was 48.1 µM; in the data set with HepG2, > 100 µM. In addition, in data set [1], the IC50 at 72 h came to 43.9 µM.
`C[C@]12CC[C@@H]3c4ccc(OCCCC[Se]C#N)cc4CC[C@H]3[C@@H]1CCC2=O`: the IC50 in the data set on HeLa was 14 µM; in the data set on SK-OV-3 it was 49.7 µM; in the data set on T47D, 75.7 µM; in the data set with MCF7, 41.1 µM; with HepG2, > 100 µM. In addition, the IC50 at 72 h in data set [1] was found to be 42.8 µM.
For the compound `COc1cc2c(cc1O)CC[C@@H]1[C@@H]2CC[C@]2(C)[C@@H](O)CC[C@@H]12` [2-METHOXYESTRADIOL], the IC50 in the data set with HeLa is 8.6 µM; in the data set on SK-OV-3, 16.5 µM; in the data set with T47D it was 25.2 µM; in the data set on MCF7, > 70 µM; with HepG2 it was 2.3 µM. Also, in data set [1], the IC50 at 72 h was determined as 4.6 µM.
As to `C[C@]12CC[C@H](O)CC1=CC[C@@H]1[C@@H]2CC[C@]2(C)C(c3cccnc3)=CC[C@@H]12` [ABIRATERONE], the IC50 with HeLa is 16.9 µM; in the data set with SK-OV-3, 59.5 µM; with T47D, 34.7 µM; in the data set with MCF7, 38.2 µM; with HepG2 it was 59.8 µM. The IC50 at 72 h in data set [1] was > 100 µM.
